Assays:
[1] = Average plasma concentration of spinosad in dogs after oral dosing; assay type: in vivo
Excerpt: (§1) Methods: A pool of 40 dogs are to be screened before inclusion in this example by preliminarily infesting them with ˜100 unfed adult Ctenocephalidesfelis in order to produce a pool of dogs that can suitably sustain a reliable infestation rate of approximately 50% of live fleas over a 48-hour period. The dogs with the highest live flea counts are to be randomly allocated to 2 treatment groups (6 dogs per group) based on their pre-treatment flea counts from experimental infestations. The first treatment group is to be the control group and the second treatment group to be the test group.
(§2) The dogs are to be housed individually during the study period and are to be fed a commercial dry dog food ration with ad libitum access to water.
(§3) Each dog in the test group is to receive by mouth a liquid formulation of spinosyn preferably spinosad. The dosage of 2.5 mg/kg of the dog's weight is to be administered to the dogs on each of days 0-29 and the dosage of 5 mg/kg of the dog's weight is to be administered on days 30-50.
Dogs in the control group are not to receive spinosyn or any other tick control treatment. Each dog in the test group is to be offered its daily ration (dry food) and the individual doses of liquid formulation are to be administered after the individual dog has eaten at least 25% of its total daily ration. After receiving the dose of spinosyn the dogs are to be allowed to continue eating. This mimics incorporating the spinosyn in feed. Each dog in the test group and the control group is to be experimentally infested with 50 unfed adult ticks (ca. 50% male/50% female) on test days 12, 19, 28, 35, 42, 49 and 56. Comb counts for attached live and moribund adult ticks are to be conducted on days 14, 21, 30, 37, 44, 51 and 58. Note that the dosage is to be increased at day 30 and the final dose is to be given on day 50.
Using the same study method as described above, blood is to be drawn at 72, 120, 168, 336, 504, 720 and 888 hours after the initial dose of spinosyn is administered. The average concentration of spinosyn in the blood for different dosage levels can then be determined.
Referring now to TABLE 1 and FIG. 2. Sample results are shown for the average plasma concentration of spinosad in a canine's blood (ng/mL) versus time in hours for different dosage levels of spinosad. By way of comparison, the average plasma concentration of spinosyn for a single-dose administration to be given monthly (squares) is shown with the average plasma concentration of spinosyn for a substantially daily dose of 2.5 mg/kg/day or 5.0 mg/kg/day (circles). The daily dose is increased from 2.5 mg/kg/day to 5.0 mg/kg/day at about hour 700 (around day 30).

Rhipicephalus sanguineus = experiment: Efficacy of spinosyn administered per os to dogs for treatment and control of Rhipicephalus sanguineus (tick comb counts); assay type: in vivo; conditions: oral daily dose increased from 2.5 to 5.0 mg/kg/day around day 30, days 37-50, FIG. 1
Excerpt: Efficacy of Spinosyn Administered per os, i.e. by Mouth, to Dogs for the Treatment and Control of Rhipicephalus sanguineus.
as §1, §2, §3
Dogs in the control group are not to receive spinosyn or any other tick control treatment. […]
Results: Referring now to FIG. 1. […] Percent Efficacy is determined according to the formula [AM ticks CONTROL−AM ticks TREATED]/AM ticks Control. […]

## spinosad
[1]; oral daily 2.5-5.0 mg/kg/day spinosad (2.5 mg/kg/day phase), 72 hours
  Average Plasma Concentration: 221.50 ng/mL
[1]; oral daily 2.5-5.0 mg/kg/day spinosad (2.5 mg/kg/day phase), 120 hours
  Average Plasma Concentration: 327.07 ng/mL
[1]; oral daily 2.5-5.0 mg/kg/day spinosad (2.5 mg/kg/day phase), 168 hours
  Average Plasma Concentration: 455.78 ng/mL
[1]; oral daily 2.5-5.0 mg/kg/day spinosad (2.5 mg/kg/day phase), 336 hours
  Average Plasma Concentration: 566.25 ng/mL
[1]; oral daily 2.5-5.0 mg/kg/day spinosad (2.5 mg/kg/day phase), 504 hours
  Average Plasma Concentration: 668.77 ng/mL
[1]; oral daily 2.5-5.0 mg/kg/day spinosad (5.0 mg/kg/day phase), 888 hours
  Average Plasma Concentration: 635.72 ng/mL
[1]; oral daily 2.5-5.0 mg/kg/day spinosad (5.0 mg/kg/day phase), 1056 hours
  Average Plasma Concentration: 967.33 ng/mL
[1]; oral daily 2.5-5.0 mg/kg/day spinosad (after final dose on day 50), 1392 hours
  Average Plasma Concentration: 761.45 ng/mL
[1]; oral daily 2.5-5.0 mg/kg/day spinosad (dose raised to 5.0 mg/kg/day at about hour 700), 720 hours
  Average Plasma Concentration: 533.12 ng/mL
Rhipicephalus sanguineus
  Percent Efficacy (reduction in attached live and moribund adult tick counts vs control): increase in efficacy is clear
